Data taken from US11440916B2, “Selective A2A receptor antagonist” (InxMed (Nanjing) Co., Ltd., priority 2018, dated 2022).
Entries after “also recorded” stand apart in the source; their conditions may differ. Read-outs that look alike come from different tables or passages of the source.

Columns and labels:
A2A receptor = A2A receptor (Homo sapiens, UniProt P29274); assay: biochemical
Experimental: The mixture in the Opti-plate was transferred to the [sequence]-96 GF/B filter plate, which was then washed 9 times with Washing Buffer (500 μl/well), and incubated at 55° C. for 10 min. […] A series of concentrations were established for each compound and the CPM values were plotted versus the concentrations. IC50 values were calculated from the curve obtained.

[1] = Oral bioavailability, AUC, half-life, plasma, brain and liver concentration in mice at 2 mg/kg; format: in vivo; settings: for AUC(0-t) / half-life / bioavailability: plasma; for bioavailability: read-out: Absolute bioavailability (oral); for Plasma concentration 4 and 6 hours after oral administration: time point not stated
Experimental: HZ10126 and other test compounds were each administered to mice at a dose of 2 mg/kg, and the bioavailability, AUC, plasma concentration, level of brain penetration (i.e. brain concentration) and liver concentration after the oral administration were measured and shown in Table 1. The measurement methods are well known to a person skilled in the art.

B16-F10 cells = assay: Mouse melanoma lung metastasis model, oral HZ10126; format: in vivo, mice
Experimental: 4.1 Establishment of a Mouse Melanoma Model (6×10^4 Cells/Mouse)
5-week old C58BL/6N mice, half male and half female, were divided into 4 groups, with 10 mice per group. B16-F10 cells were digested and centrifuged, re-suspended in physiological saline and washed once. The cells were counted and adjusted to a cell density of 30×10^4 cells/ml in a volume of 12 ml. 200 μl of the cell suspension was injected into the tail vain of each mouse (Day 1), and the body weight of mice was recorded once every 3 days. On Day 18, the mice were all sacrificed, lungs were removed, and metastasis tumors were counted and weighed. Livers, kidneys and spleens were taken for HE staining to evaluate the toxicity of the drug. The lungs were subjected to immunohistochemistry and stained for CD11b, F4/80 and CD8.
Test drug: HZ10126. 2 mg HZ10126 was dissolved in 80 μl DMSO first, and the resultant solution, while being vortexed, was added dropwise to 10 ml 50% PEG-400 to prepare a 0.2 mg/ml solution.
For the test groups, the HZ10126 solution was intragastrically administered at a dose of 2 mg HZ10126/kg/day. For the control group, an equivalent volume of 50% PGE-400 was administered. From the day of injection of cells, the drug was administered once a day for 18 consecutive days.

[2] = reference [2]; cited from earlier work
[3] = cited from earlier work
[4] = 2 mg/kg oral, 1 h post administration
[5] = 2 mg/kg, 4 h after oral administration
[6] = 2 mg/kg, 6 h after oral administration

## Nc1nc2c(cnn2CCc2ccc(C(=O)O)cc2)c2nc(-c3ccco3)nn12 [HZ10126]
A2A receptor
  IC50: 1.8 nM
[1]; [4]
  Liver concentration/Plasma concentration: 7
[1]; 2 mg/kg oral, 6 h post administration
  Liver concentration/Plasma concentration: 24
[1]; [5]
  Plasma concentration after oral administration: 52.0 ± 7.03 ng/mL
[1]; [6]
  Plasma concentration after oral administration: 28.9 ± 9.79 ng/mL
[1]; 2 mg/kg, oral
  Brain penetration: no detectable brain concentration; also recorded: No penetration
[1]; mouse, liver/plasma, 2 mg/kg oral, 1 h post administration
  Kp at 1 h: 7
[1]; mouse, liver/plasma, 2 mg/kg oral, 6 h post administration
  Kp at 6 h: 24
[1]; mouse, 2 mg/kg, oral
  AUC(0-t): 371 ± 62.9 ng·h/mL
  half-life: 4 to 5 h
  bioavailability: 13.4%
B16-F10 cells; Day 18, 2 mg/kg/day intragastric, once a day for 18 days
  Metastases on the lungs versus control group: obviously less than those in the control group
B16-F10 cells; mice, oral 2 mg/kg/day
  Inhibitory effect on tumor / tumor metastasis: excellent effect of suppressing tumor metastasis; also recorded: excellent inhibitory effect

## Nc1nc2c(cnn2CCc2ccc(OCC(=O)O)cc2)c2nc(-c3ccco3)nn12 [HZ10136]
A2A receptor
  IC50: 1.1 nM
[1]; [4]
  Liver concentration/Plasma concentration: 1 h post administration: 2.3
[1]; 2 mg/kg, oral
  Brain penetration: No penetration
[1]; 2 mg/kg
  Plasma concentration 4 and 6 hours after oral administration: 2.57 ± 0.10 ng/mL
[1]; mouse, 2 mg/kg, oral
  AUC(0-t): 7.42 ± 5.66 ng·h/mL
  half-life: < 0.5 h
  bioavailability: 0.73%

## Nc1nc2c(cnn2CCN2CCN(c3ccc(C(=O)O)cc3)CC2)c2nc(-c3ccco3)nn12 [HZ10168]
A2A receptor
  IC50: 1.2 nM
[1]; 2 mg/kg
  Plasma concentration 4 and 6 hours after oral administration: 4.50 ± 2.53 ng/mL
[1]; mouse, 2 mg/kg, oral
  AUC(0-t): 93.9 ± 40.8 ng·h/mL

## CCOC(=O)c1ccc(CCn2ncc3c2nc(N)n2nc(-c4ccco4)nc32)cc1 [HZ10328]
[1]; [5]
  Plasma concentration after oral administration: 4 h: 24.0 ± 8.02 ng/ml
[1]; mouse, 2 mg/kg, oral
  AUC(0-t): 233 ± 73.5 ng·h/mL
  half-life: 3.03 h

## Nc1nc2c(cnn2CCc2ccc(CO)cc2)c2nc(-c3ccco3)nn12 [HZ10330]
[1]; 2 mg/kg, oral
  Absolute bioavailability (oral): does not lead to detectable bioavailability
[1]; 2 mg/kg
  Plasma concentration 4 and 6 hours after oral administration: Not detected from 1 h after oral administration
[1]; mouse, 2 mg/kg, oral
  bioavailability: 0%

## COCCOc1ccc(N2CCN(CCn3ncc4c3nc(N)n3nc(-c5ccco5)nc43)CC2)cc1 [Preladenant, reference compound]
A2A receptor
  IC50: 2.5 nM
[1]; [6]
  Plasma concentration after oral administration: 6 h: 6.20 ± 7.27 ng/ml
[1]; mouse, 2 mg/kg, oral
  AUC(0-t): 285 ± 113 ng·h/mL
[2]
  half-life: 2.1 h

## Nc1nc2c(cnn2CCc2ccccc2)c2nc(-c3ccco3)nn12 [SCH 58261]
[3]; after intravenous injection, reference [1]
  half-life: *26.7 min
[3]; after oral administration
  Oral bioavailability: barely any oral bioavailability; also recorded: barely has any bioavailability
[3]; intraperitoneal injection
  Brain concentration: very low brain concentration
  Plasma concentration: relatively high plasma concentration
[3]; rats, after intravenous injection
  Half-life in the blood: 0.445 h
[1]; 2 mg/kg
  Plasma concentration 4 and 6 hours after oral administration: No significant meaningful concentration
[1]; mouse, 2 mg/kg, oral
  bioavailability: ~0%
